Key:
[1] = Dependence of […]s on Mg2+ and ATP (fluorescence intensity); assay type: biochemical; conditions: ATP +
Source text: Ligand specificity is an important biosensors feature. Generally, the NRPS A domains have high specificity for their substrates because they are the first “gatekeeper” of NRPSs and ensure that the correct monomers are activated and thioesterified[32],[33]. […] Twenty proteinogenic amino acids were used to test the ligand specificity of […]s. […] We also investigated the dependence of […]s on Mg^2+ and ATP (Supplementary Fig. 4).
Supplementary Fig. 4 Dependence of GEC FINDER s on Mg2+ and ATP . a-j, Fluore scence intensities of
GECF IN DERs in the absence of any substra te, in the pre sence of Mg2+ alone, ATP alone, both Mg2+ and ATP, Mg2+
and ATP with re spective substra tes. Mg2+ concentra tion was 2.5 mM, and ATP concentra tion was 1 mM. a, 100 μM
data are provided as a Source Data file.

[2] = Dose–response curve of purified […] with 4-coumaric acid; assay type: biochemical
Experimental: (§1) Fig. 3 Dose–response curves and fluorescence spectrums of […]s. a, c, e, g, i, k Dose–response curve of purified […]s with increasing concentrations of ligand in 100 mM Tris-HCl buffer (pH=7.5). […] All data shown are mean ± S.D. (n = 3 biologically independent samples). Source data are provided as a Source data file.
The study conducted dose–response curve, substrate specificity, and fluorescent spectrum analyses in 100-mM Tris buffer (pH = 7.5), while pH stability experiments were performed in 100-mM Tris buffer at three different pH values (6.5, 7.5, and 8.5) at room temperature. […] Fluorescent signals were detected using a Microplate Reader (Synergy H4, Bio Tek) at an excitation/emission wavelength of 460 nm/510 nm or 480 nm/510 nm. The dose-response curve was determined immediately after the addition of the analyte. The total duration of the measurement was 15 min, with readings taken at one-minute intervals. The dose-response curve was plotted using the fluorescence values obtained after achieving stability in the fluorescence signal. […] Excitation spectra were scanned from 300 to 540 nm with a step size of 5 nm, and the emission wavelength was set to 560 nm. Emission spectra were scanned from 470 to 700 nm with a step size of 5 nm, and the excitation wavelength was set to 450 nm. The thermal stability of […] was analyzed using the UNcle multifunctional protein stability analysis system. Measurements were performed in 20 mM MOPS buffer with 2 mM DTT at a sample concentration of 1 mg/mL. Absolute fluorescence quantum yields were measured using an absolute photoluminescence quantum yield spectrometer (FS5, Edinburgh).

[3] = Fluorescence spectra / excitation wavelength scan of […]s; assay type: physicochemical; conditions: Wavelength 300 nm
Experimental: as §1
(§2) The study conducted dose–response curve, substrate specificity, and fluorescent spectrum analyses in 100-mM Tris buffer (pH = 7.5), while pH stability experiments were performed in 100-mM Tris buffer at three different pH values (6.5, 7.5, and 8.5) at room temperature. […] protein at a concentration of 0.75 μM, various small molecule concentrations, 1 mM ATP, and 2.5 mM MgCl2 were used in the experiments. Fluorescent signals were detected using a Microplate Reader (Synergy H4, Bio Tek) at an excitation/emission wavelength of 460 nm/510 nm or 480 nm/510 nm. The dose-response curve was determined immediately after the addition of the analyte. The total duration of the measurement was 15 min, with readings taken at one-minute intervals. The dose-response curve was plotted using the fluorescence values obtained after achieving stability in the fluorescence signal. The dose-response curves were fitted using the logistic model LOGISTIC5 available in Origin 2021, which could provide a more adequate fit to asymmetric dose-response data[62],[63]. Excitation spectra were scanned from 300 to 540 nm with a step size of 5 nm, and the emission wavelength was set to 560 nm. Emission spectra were scanned from 470 to 700 nm with a step size of 5 nm, and the excitation wavelength was set to 450 nm. The thermal stability of […] was analyzed using the UNcle multifunctional protein stability analysis system. Measurements were performed in 20 mM MOPS buffer with 2 mM DTT at a sample concentration of 1 mg/mL. Absolute fluorescence quantum yields were measured using an absolute photoluminescence quantum yield spectrometer (FS5, Edinburgh).

GECFINDER-4CA = target: T1, GECFINDER-4CA (Nicotiana tabacum, UniProt O24146); assay: Fluorescence dose-response of purified cpEGFP sensors (0.75 uM) in 100 mM Tris-HCl pH 7.5, room temperature, 1 mM ATP, 2.5 mM MgCl2; excitation 400, 460 or 480 nm by sensor, emission 510 nm; logistic five-parameter fit.; assay type: biochemical; conditions: n = 3
T1 construct: gene 4CL2; cpEGFP with fixed linkers (LE-cpEGFP-TR) inserted between Leu439 and Ile440 in hinge A of Nt4CL2
T1 sequence (O24146 2-542): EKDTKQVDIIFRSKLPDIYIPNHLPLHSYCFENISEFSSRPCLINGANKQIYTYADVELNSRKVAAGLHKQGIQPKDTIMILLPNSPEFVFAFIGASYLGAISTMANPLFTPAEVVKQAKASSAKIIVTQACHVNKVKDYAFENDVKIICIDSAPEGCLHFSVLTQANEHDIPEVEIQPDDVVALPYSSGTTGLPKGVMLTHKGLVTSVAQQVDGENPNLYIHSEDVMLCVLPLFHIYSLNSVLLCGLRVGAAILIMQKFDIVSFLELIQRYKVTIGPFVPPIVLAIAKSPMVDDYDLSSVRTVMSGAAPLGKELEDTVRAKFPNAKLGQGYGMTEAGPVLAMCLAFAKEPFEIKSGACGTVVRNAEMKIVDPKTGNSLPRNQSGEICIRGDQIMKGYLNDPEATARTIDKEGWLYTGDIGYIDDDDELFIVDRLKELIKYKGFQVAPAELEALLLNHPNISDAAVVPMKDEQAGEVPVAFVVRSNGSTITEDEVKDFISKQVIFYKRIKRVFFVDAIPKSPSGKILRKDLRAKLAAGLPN
Experimental: (§3) Fig. 3 Dose–response curves and fluorescence spectrums of […]s. a, c, e, g, i, k Dose–response curve of purified […]s with increasing concentrations of ligand in 100 mM Tris-HCl buffer (pH=7.5). The normalized ΔF/F0 value increased after ligand binding. All data shown are mean ± S.D. (n = 3 biologically independent samples). b, d, f, h, j, l The fluorescence spectra of […]s changed as the ligand concentration increased. All data shown are mean ± S.D. (n = 3 biologically independent samples). Source data are provided as a Source data file.
as §2

GECFINDER-ATP = target: T2, GECFINDER-ATP (Bacillus subtilis, UniProt P39845); assay: Fluorescence dose-response of purified […]-ATP with ATP as the varied ligand (10 nM to 2 mM), 100 mM Tris pH 7.5, room temperature, excitation/emission 480/510 nm.; assay type: biochemical; conditions: n = 3
T2 construct: gene ppsA; PpsA-GluA A domain; LE-cpEGFP-TR inserted between Asp425 and Asp426 in hinge A
T2 sequence (P39845 434-960): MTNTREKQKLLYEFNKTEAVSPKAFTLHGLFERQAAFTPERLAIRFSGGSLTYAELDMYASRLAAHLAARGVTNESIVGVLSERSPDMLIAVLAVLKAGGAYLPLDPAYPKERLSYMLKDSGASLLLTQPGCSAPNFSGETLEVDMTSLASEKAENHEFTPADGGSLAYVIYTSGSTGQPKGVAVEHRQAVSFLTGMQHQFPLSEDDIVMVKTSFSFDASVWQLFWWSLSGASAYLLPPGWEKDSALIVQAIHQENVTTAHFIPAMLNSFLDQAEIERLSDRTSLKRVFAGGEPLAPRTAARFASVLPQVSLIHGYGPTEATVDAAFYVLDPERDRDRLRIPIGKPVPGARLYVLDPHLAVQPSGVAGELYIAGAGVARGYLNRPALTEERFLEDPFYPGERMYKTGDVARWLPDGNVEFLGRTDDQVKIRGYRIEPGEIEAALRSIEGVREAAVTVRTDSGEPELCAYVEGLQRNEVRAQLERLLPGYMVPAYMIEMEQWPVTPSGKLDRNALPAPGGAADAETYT
Experimental: as §2, with “Excitation spectra were scanned from 300 to 540 nm with a step size of 5 nm, and the emission wavelength was set to 560 nm. Emission spectra were scanned from 470 to 700 nm with a step size of 5 nm, and the excitation wavelength was set to 450 nm.” left out, “Measurements were performed in 20 mM MOPS buffer with 2 mM DTT at a sample concentration of 1 mg/mL.” left out, “Edinburgh). […]” for “Edinburgh).”

At4CL2 = conditions: ATP Km of At4CL2, homolog of Nt4CL2; cited from earlier work
GrsA-Phe A domain = conditions: Km for ATP of GrsA-Phe A domain; cited from earlier work
GECFINDER-His1 = target: T3, GECFINDER-His1 (Bacillus licheniformis, UniProt O68008); assay: Fluorescence dose-response of purified cpEGFP sensors (0.75 uM) in 100 mM Tris-HCl pH 7.5, room temperature, 1 mM ATP, 2.5 mM MgCl2; excitation 400, 460 or 480 nm by sensor, emission 510 nm; logistic five-parameter fit.; assay type: biochemical; conditions: n = 3
T3 construct: gene bacC; BacC-HisA-PCP; cpEGFP inserted, linkers GA-HC
T3 sequence (O68008 2956-3585): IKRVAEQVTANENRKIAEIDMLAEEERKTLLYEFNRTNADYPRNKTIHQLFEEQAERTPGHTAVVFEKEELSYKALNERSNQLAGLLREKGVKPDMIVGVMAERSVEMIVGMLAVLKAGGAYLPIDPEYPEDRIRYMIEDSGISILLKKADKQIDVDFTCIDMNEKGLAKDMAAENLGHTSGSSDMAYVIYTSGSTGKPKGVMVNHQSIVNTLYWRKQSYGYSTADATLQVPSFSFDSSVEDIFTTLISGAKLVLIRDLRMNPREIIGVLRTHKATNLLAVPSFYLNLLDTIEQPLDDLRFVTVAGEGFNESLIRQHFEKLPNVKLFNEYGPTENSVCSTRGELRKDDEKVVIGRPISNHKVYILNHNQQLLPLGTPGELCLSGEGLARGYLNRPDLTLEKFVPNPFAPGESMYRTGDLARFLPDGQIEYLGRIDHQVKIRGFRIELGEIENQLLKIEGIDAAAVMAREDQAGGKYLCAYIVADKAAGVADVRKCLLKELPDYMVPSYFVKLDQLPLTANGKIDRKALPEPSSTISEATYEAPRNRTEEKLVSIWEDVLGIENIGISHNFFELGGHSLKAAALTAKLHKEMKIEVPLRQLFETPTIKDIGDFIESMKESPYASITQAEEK
Experimental: as §3, §2

GECFINDER-His2 = target: T4, GECFINDER-His2 (Bacillus licheniformis, UniProt O68008); assay: as above; assay type: biochemical; conditions: n = 3
T4 construct: gene bacC; BacC-HisA-PCP; cpEGFP inserted, linkers GG-PV
T4 sequence (O68008 2956-3585): as above
Experimental: as §3, §2

GECFINDER-Ile2 = target: T5, GECFINDER-Ile2 (Bacillus licheniformis, UniProt O68006); assay: as above; assay type: biochemical; conditions: n = 3
T5 construct: gene bacA; BacA-IleA-PCP; cpEGFP inserted, linkers RY-PG
T5 sequence (O68006 1-632 N218D): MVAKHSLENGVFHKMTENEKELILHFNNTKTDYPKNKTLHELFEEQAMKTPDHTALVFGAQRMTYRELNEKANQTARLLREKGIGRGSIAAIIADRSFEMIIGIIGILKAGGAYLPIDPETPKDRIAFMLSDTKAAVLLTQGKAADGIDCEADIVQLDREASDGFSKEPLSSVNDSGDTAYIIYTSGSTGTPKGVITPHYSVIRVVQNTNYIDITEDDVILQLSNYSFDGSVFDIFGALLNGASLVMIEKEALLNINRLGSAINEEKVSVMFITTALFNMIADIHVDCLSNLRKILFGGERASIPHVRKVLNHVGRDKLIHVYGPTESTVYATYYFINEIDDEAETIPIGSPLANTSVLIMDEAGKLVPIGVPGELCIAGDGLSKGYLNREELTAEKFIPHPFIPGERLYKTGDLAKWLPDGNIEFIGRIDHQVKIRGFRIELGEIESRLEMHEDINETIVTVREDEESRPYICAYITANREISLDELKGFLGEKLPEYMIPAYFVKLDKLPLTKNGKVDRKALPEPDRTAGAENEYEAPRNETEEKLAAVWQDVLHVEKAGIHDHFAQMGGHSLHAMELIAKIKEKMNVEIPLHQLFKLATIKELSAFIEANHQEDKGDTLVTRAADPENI
Experimental: as §3, §2

GECFINDER-Ile3 = target: T6, GECFINDER-Ile3 (Bacillus licheniformis, UniProt O68006); assay: as above; assay type: biochemical; conditions: n = 3
T6 construct: gene bacA; BacA-IleA-PCP; cpEGFP inserted, linkers VY-LS
T6 sequence (O68006 1-632 N218D): as above
Experimental: as §3, §2

GECFINDER-Ile1 = target: T7, GECFINDER-Ile1 (Bacillus licheniformis, UniProt O68006); assay: as above; assay type: biochemical; conditions: n = 3
T7 construct: gene bacA; BacA-IleA-PCP; cpEGFP inserted, linkers VY-CA
T7 sequence (O68006 1-632 N218D): as above
Experimental: as §3, §2

For `O=C(O)/C=C/c1ccc(O)cc1` [4-coumaric acid], the “fluorescence intensity, AVE of 3 repeats” value ([1]; Supplementary Fig. 4 a, Mg+ +, 4-coumaric acid +) was 3682.33, the “Dose-response, AVE of Repeat 1-3 (Fig. 3 a)” value (“Dose-response, AVE” for short) ([2]; 4-coumaric acid 0.001 μM) was 0 and the “Dose-response, AVE” value ([2]; 4-coumaric acid 0.01 μM) was 0.02925. The “Dose-response, AVE” value ([2]; 4-coumaric acid 0.25 μM) was 0.1354, the “Dose-response, AVE” value ([2]; 4-coumaric acid 0.5 μM) was 0.2537 and the “Dose-response, AVE” value ([2]; 4-coumaric acid 2.5 μM) was 0.5733. For the same compound, the “Dose-response, AVE” value ([2]; 4-coumaric acid 5 μM) was 0.6689, the “Dose-response, AVE” value ([2]; 4-coumaric acid 25 μM) was 0.7533 and the “Dose-response, AVE” value ([2]; 4-coumaric acid 50 μM) was 0.7561. The “Dose-response, AVE” value ([2]; 4-coumaric acid 250 μM) was 0.7978, the “Dose-response, AVE” value ([2]; 4-coumaric acid 500 μM) was 0.7717 and the “Dose-response, AVE” value ([2]; 4-coumaric acid 2500 μM) was 0.8533. For the same compound, the “Dose-response, AVE” value ([2]; 4-coumaric acid 5000 μM) was 0.8286, the “Wavelength scan, AVE of Repeat 1-3 (Fig. 3 b)” value (shortened to “Wavelength scan, AVE”) ([3]; 0.001 μM 4-coumaric acid) was 368 and the “Wavelength scan, AVE” value ([3]; 2.5 μM 4-coumaric acid) was 388.333. For the same compound, the “Wavelength scan, AVE” value ([3]; 250 μM 4-coumaric acid) was 108.667 and the EC50 (GECFINDER-4CA) was 1.03 ± 0.06 µM.

For `Nc1ncnc2c1ncn2[C@@H]1O[C@H](COP(=O)(O)OP(=O)(O)OP(=O)(O)O)[C@@H](O)[C@H]1O` [ATP, adenosine triphosphate], the “fluorescence intensity, AVE of 3 repeats” value ([1]; Supplementary Fig. 4 a, Mg+ +, 4-coumaric acid -) was 2171.67, the “fluorescence intensity, AVE of 3 repeats” value ([1]; Supplementary Fig. 4 a, Mg+ -, 4-coumaric acid -) was 2266.67 and the “fluorescence intensity, AVE of 3 repeats” value ([1]; Supplementary Fig. 4 b, Mg+ +, phenylalanine -) was 9194. For the same compound, the “fluorescence intensity, AVE of 3 repeats” value ([1]; Supplementary Fig. 4 b, Mg+ -, phenylalanine -) was 7173.67, the “fluorescence intensity, AVE of 3 repeats” value ([1]; Supplementary Fig. 4 c, Mg+ +, glutamine -) was 17330.3 and the “fluorescence intensity, AVE of 3 repeats” value ([1]; Supplementary Fig. 4 c, Mg+ -, glutamine -) was 17083. For the same compound, the “fluorescence intensity, AVE of 3 repeats” value ([1]; Supplementary Fig. 4 e, Mg+ +, isoleucine -) was 12985, the “fluorescence intensity, AVE of 3 repeats” value ([1]; Supplementary Fig. 4 e, Mg+ -, isoleucine -) was 12174.7 and the “fluorescence intensity, AVE of 3 repeats” value ([1]; Supplementary Fig. 4 f, Mg+ +, histidine -) was 25974. The “fluorescence intensity, AVE of 3 repeats” value ([1]; Supplementary Fig. 4 f, Mg+ -, histidine -) was 26138.3, the “fluorescence intensity, AVE of 3 repeats” value ([1]; Supplementary Fig. 4 g, Mg+ +, leucine -) was 7346.67 and the “fluorescence intensity, AVE of 3 repeats” value ([1]; Supplementary Fig. 4 g, Mg+ -, leucine -) was 6910.33. The “fluorescence intensity, AVE of 3 repeats” value ([1]; Supplementary Fig. 4 i, Mg+ +, tyrosine -) was 5938.67, the “fluorescence intensity, AVE of 3 repeats” value ([1]; Supplementary Fig. 4 i, Mg+ -, tyrosine -) was 5712 and the “fluorescence intensity, AVE of 3 repeats” value ([1]; Supplementary Fig. 4 j, Mg+ +, phenylalanine -) was 7465. For the same compound, the “fluorescence intensity, AVE of 3 repeats” value ([1]; Supplementary Fig. 4 j, Mg+ -, phenylalanine -) was 7633, the “fluorescence intensity, AVE of 3 repeats” value ([1]; Supplementary Fig. 4 h, Mg+ +, S-β-phenylalanine -) was 5374.33 and the “fluorescence intensity, AVE of 3 repeats” value ([1]; Supplementary Fig. 4 h, Mg+ -, S-β-phenylalanine -) was 5014. The “fluorescence intensity, AVE of 3 repeats” value ([1]; Supplementary Fig. 4 d, Mg+ +, proline -) was 50889, the “fluorescence intensity, AVE of 3 repeats” value ([1]; Supplementary Fig. 4 d, Mg+ -, proline -) was 46119 and the EC50 (GECFINDER-ATP) was 69.3 ± 4.69 µM. The Km (At4CL2) was 163 µM and the Km (GrsA-Phe A domain) was 150 µM.

Compound `N[C@@H](Cc1c[nH]cn1)C(=O)O` [His, histidine] has an EC50 (GECFINDER-His1) of 10.4 ± 4.74 µM and an EC50 (GECFINDER-His2) of 13.2 ± 4.26 µM.

With `CC[C@H](C)[C@H](N)C(=O)O` [Ile, isoleucine] the EC50 (GECFINDER-Ile2) was 221 ± 66.3 µM, the EC50 (GECFINDER-Ile3) was 186 ± 61 µM and the EC50 (GECFINDER-Ile1) was 161 ± 32.1 µM.

From PMC10590383, “Repurposing conformational changes in ANL superfamily enzymes to rapidly generate biosensors for organic and amino acids” (Nature Communications, 2023)
